# From patent US11180783B2, “Method for producing chiral amines” (VITO NV, priority 2017, dated 2021)
# Experiments:
# TA_v2 = type: biochemical
# Method: Reaction was performed in 600 mL volume containing 2 mg/mL of TA_v2 powder, 250 mM AD 6, 10 mM BA substrate (dissolved in DMSO) and 0.1 mM PLP in 100 mM CHES buffer, pH 9.5. The final DSMO concentration was 5% (v/v). After 16 h of reaction, 550 mL of reaction mixture was transferred into the membrane unit and 2 intermittent nanofiltration tests were performed. The remaining 50 mL of reaction mixture was used as control without filtration. After the first nanofiltration (6 h duration, DESAL® DK, 20 bar), the collected permeate and the retentate were mixed, and 5 mM of additional BA substrate were added. Additional substrate was added also to the control condition. After 16 h of reaction, the second nanofiltration was performed (5 h duration, DuraMem® 200, 20 bar). Reaction permeate and retentate samples were taken after distinct time periods and prepared for quantitative analysis.
# Addition of BA (5 mM) was made to the enzymatic tank E-1 after 24 h reaction. The second nanofiltration was run after 39 h reaction (DuraMem® 200 membrane, 20 bar).
# TA_3HMU = test: asymmetric amine synthesis (transamination) with TA_3HMU; type: biochemical, Ruegeria pomeroyi; details: for product formation from ketosubstrate with HMW amino donors: TA_3HMU, TLC or chiral GC analysis, no equilibrium shifting strategy; for BA conversion: crude extract lyophilized TA_3HMU (3 mg/mL), 25 times excess amine donor (250 mM)
# Method: Asymmetric synthesis of chiral amines were performed using HMW amino donors and substrates 1a, 1b and 1c in the presence of TA_3HMU enzyme. […] However, performing the transamination reaction using substrates 1a or 1b, followed by a separation of the formed amine product using a membrane unit (8), according to advantageous aspects of the disclosure, will further shift the thermodynamic equilibrium to the product side of the reaction, thereby improving the product purity of the produced amine product.
# Asymmetric amine synthesis experiments were performed using freeze-dried crude extract of TA_3HMU, provided by the company Enzymicals (Germany) and using PEG-A and PEG-C as amino donors (the activity of the enzyme being 970 mU/mg, photometric assay based on acetophenone detection). For a first test, a quite high amount of enzyme (12.5 mg/mL freeze dried powder, corresponding to about 6 mg/mL of total protein content) was used. In addition to poly ethylene glycol molecules (PEGs), the common and cheap LMW amino donor IPA was also investigated. Unlike PEGs, which can be retained by a porous (nanofiltration) membrane (3) with appropriate MWCO and/or pore size, the LMW amino donor IPA will also permeate forming the second solution (2).
# Asymmetric amine synthesis experiments were also performed using amine transaminases TA_v2, purchased from c-LEcta GmbH, Leipzig, Germany. The purified enzyme was supplied as freeze-dried powder, the activity of TA_v2 being 1.73 U/mg. All reactions were performed in 1 mL volume containing 12.5-0.78 mg/mL of either TA_3HMU or TA_v2 powder, 10-500 mM amine donor (IPA, PEG-A and PEG-C, 10 mM BA model substrate (dissolved in DMSO) and 0.1 mM PLP in 100 mM CHES buffer, pH 9.5. The final DSMO concentration was 5% (v/v). […]
# Substrate (BA) and product (MPPA) concentrations were determined by UHPLC (Thermo Scientific™) with UV detection at 194/210 nm. The chromatographic separation was achieved using 1 μL injection onto a C18 reversed-phase column (Waters Acquity UPLC® BEH C18 1.7 μm 2.1×50 mm). The column temperature was kept at 40° C. The gradient elution program is using mobile phase A 0.1% Formic Acid (FA) in Water (dH2O) and mobile phase B 0.1% FA in acetonitrile (ACN). The elution program was as follows: 0-4 min 99-30% A; 4-5 min 30-1% A; 5-5.1 min 1-99% A; 5.1-7.5 min 99% A; all at a flowrate of 400 μL/min. Amine donors AD 3 and AD 6 were analysed by HPLC with ELSD detector on Alltima HP C18 HL 5 μ, 4.6×250 mm. The eluents for PEGs analysis were: A) dH2O, 0.1% FA; B) ACN, 0.1% FA.
# Furthermore, tests were conducted using different loadings of freeze-dried crude extract of TA_3HMU. Since the biotransformation could not be observed photometrically, continuous time-dependent following of the enzyme reaction was not possible. Therefore, laborious stopped enzyme assay providing only few measure points had to be employed. As expected, the initial reaction rate decreased when the enzyme loading was reduced. In presence of IPA donor amine, higher conversions were achieved. However, the reaction end-point decreased, reducing the enzyme amount (cf. FIG. 5.2c). […] Experimental conditions in FIG. 5.2: 10 mM BA; 250 mM AD; 0.1 mM PLP; 5% DMSO; 100 mM CHES buffer, pH 9.5, 30° C., 1000 rpm.
# As already discussed hereinabove, using IPA as amine donor in transaminase reactions, a very high amount (e.g. 50-100 fold) amine donor excess is required, complicating downstream processing and possibly hampering the stability and activity of TAs (cf. e.g. Slabu, I. et al. in Catal. Today 306, 96-101 (2018); Savile, C. K. et al. in Science 329, 305-9 (2010); Dawood, A. W. H. et al. in ChemCatChem 10, 951-955 (2018)). TA_3HMU stability towards IPA and HMW ADs 3 and 6 was therefore explored. […] In contrast to IPA, in presence of bulky donor amines (cf. FIG. 5.3a and FIG. 5.3b). Experimental conditions in FIG. 5.3: 10 mM BA; 250 mM amine donor (AD 3, AD 6 or IPA); 0.1 mM PLP; 5% DMSO; 100 mM CHES buffer, pH 9.5, 30° C., 1000 rpm. […]
# 3FCR = test: glycine oxidase assay, TA screening towards HMW amino donors; type: biochemical, Ruegeria sp. TM1040; set-up: key: 0: no activity detected; details: wildtype TA; 20 mM amino donor (2.5 mM α-MBA), 2.5 mM glyoxylate, CHES pH 9.5, 37° C., absorbance 498 nm
# Method: (§1) The HMW amino donors listed in Table 1 were tested in a feasibility study for reaction with TA enzymes (the HMW amino donors being commercially available and relatively cheap). More particularly, in this study the acceptance of HMW amino donors by TA enzymes was investigated running a glycine oxidase assay (as described by WeiB et al. in Anal. Chem. 2014, 86, 11847-11853). Thereto, 25 wild type transaminases were selected from a library of enzymes. Transaminase selection was made on the basis of TAs availability, broad substrate and amino donor scope, and stability.
# (§2) Final substrate concentration amounted to 2.5 mM glyoxylate, 20 mM large amino donor, 7.28 U/mL horseradish peroxidase, 0.12 mg/mL purified glycine oxidase, 3 mM 4-amino antipyrine, and 4.7 mM vanillic acid in CHES buffer (100 mM) with pH 9.5, in total reaction volumes of 150 μL. Cells with empty pET28a(+) vector were applied as negative control. A reaction using 2.5 mM α-MBA was applied as positive control.
# (§3) The above (photometric) assay is semiquantitative: the increasing absorbance (slope in FIG. 4.1) correlates with enzyme activity. An accurate quantification, however, was difficult to be performed as the assay is a multi-enzyme reaction.
# (§4) TA_3HMU was then further tested with three commercially available HMW Jeffamines® (AD 3, 4 and 6).
# 3HMU = test: as above; type: biochemical, Ruegeria pomeroyi; set-up: key to TA activity towards amino donor (3HMU): 0: no activity detected; details: for TA activity towards amino donor (3HMU): wildtype (S)-selective TA, 20 mM amino donor (2.5 mM α-MBA), 2.5 mM glyoxylate, CHES pH 9.5, 37° C., absorbance 498 nm; for TA_3HMU activity / acceptance of amino donor, in words: glycine oxidase assay, semiquantitative
# Method: as §1, §2, §3, §4
# AspFum = test: as above; type: biochemical, Aspergillus fumigatus; set-up: key: 0: no activity detected; details: wildtype (R)- TA; 20 mM amino donor (2.5 mM α-MBA), 2.5 mM glyoxylate, CHES pH 9.5, 37° C., absorbance 498 nm
# Method: as §1, §2, §3, §4
# MycVan = test: as above; type: biochemical, Mycobacterium vanbaalenii; set-up: key: 0: no activity detected; details: wildtype TA; 20 mM amino donor (2.5 mM α-MBA), 2.5 mM glyoxylate, CHES pH 9.5, 37° C., absorbance 498 nm
# Method: as §1, §2, §3, §4
# AspOry = test: as above; type: biochemical, Aspergillus oryzae; set-up: key: 0: no activity detected; details: wildtype TA; 20 mM amino donor (2.5 mM α-MBA), 2.5 mM glyoxylate, CHES pH 9.5, 37° C., absorbance 498 nm
# Method: as §1, §2, §3, §4
# Vfl = test: as above; type: biochemical, Vibrio fluvialis JS17; set-up: key: 0: no activity detected; details: wildtype TA; 20 mM amino donor (2.5 mM α-MBA), 2.5 mM glyoxylate, CHES pH 9.5, 37° C., absorbance 498 nm
# Method: as §1, §2, §3, §4
# ATA 117 = test: as above; type: biochemical, Arthrobacter sp.; set-up: key: 0: no activity detected; details: wildtype TA; 20 mM amino donor (2.5 mM α-MBA), 2.5 mM glyoxylate, CHES pH 9.5, 37° C., absorbance 498 nm
# Method: as §1, §2, §3, §4
# [1] = on line nanofiltration (Desal-DK membrane) coupled with enzymatic reaction; type: biochemical; details: after 1.5 h, BA manually diafiltrated (40 mM)
# Method: Diafiltration depends on the permeate flow rate since it occurs at the same rate of permeation. Therefore, reaction and permeation rates are to be matched. When solution of high concentrated substrate (BA 200 mM in DMSO) was subjected to diafiltration, BA was accumulating in the enzymatic tank 6 (FIG. 20).
# Permeate flux was very low, therefore BA was manually diafiltrated (40 mM). After 1.5 h, 18% BA was converted.
molecule,measurement,setting,value
"CC(N)CCc1ccccc1 (centres unmarked) [1M3P, 1-methyl-3-phenylpropylamine]",additional product formation,"TA_v2; NF-2, DuraMem® 200, 20 bar",15%
"CC(=O)c1ccccc1 [1a, acetophenone]",product formation from ketosubstrate with HMW amino donors,TA_3HMU,very low product formation
"CC(=O)c1ccccc1Br [1b, ortho-bromoacetophenone]",product formation from ketosubstrate with HMW amino donors,TA_3HMU,very low product formation
"NCCCNCCNCCCN [AD 1, 1,2-bis(3-aminopropylamino)ethane]",TA activity towards amino donor (3FCR),3FCR,0
same,TA activity towards amino donor (3HMU),3HMU,0
same,TA activity towards amino donor (AspFum),AspFum,0
same,TA activity towards amino donor (MycVan),MycVan,0
same,TA activity towards amino donor (AspOry),AspOry,0
same,TA activity towards amino donor (Vfl),Vfl,0
same,TA activity towards amino donor (ATA 117),ATA 117,0
"NCCCN1CCN(CCCN)CC1 [AD 2, 1,4-Bis(3-aminopropyl)piperazine]","TA_3HMU activity / acceptance of amino donor, in words",3HMU,high activity
same,TA activity towards amino donor (AspFum),AspFum,0
same,TA activity towards amino donor (MycVan),MycVan,0
NCCNC(=O)CCN(CCC(=O)NCCN)CCN(CCC(=O)NCCN)CCC(=O)NCCN [AD 5],TA activity towards amino donor (3FCR),3FCR,0
same,TA activity towards amino donor (3HMU),3HMU,0
same,TA activity towards amino donor (AspFum),AspFum,0
same,TA activity towards amino donor (MycVan),MycVan,0
same,TA activity towards amino donor (AspOry),AspOry,0
same,TA activity towards amino donor (Vfl),Vfl,0
same,TA activity towards amino donor (ATA 117),ATA 117,0
"CC(=O)CCc1ccccc1 [BA, benzylacetone]",BA converted,[1],18%
same,additional BA converted,"TA_v2; 16 h after 5 mM substrate addition, NF reaction mixture and control (Reaction_2, Control-Reaction_2)",~17%
same,BA further converted,"TA_v2; Control-reaction_1, following 6 h, without filtration",2%
same,unreacted substrate lost in the permeate stream,TA_v2; Desal-DK,~58%
same,additional substrate conversion,"TA_v2; NF-1, 6 h nanofiltration, Desal DK, 20 bar",10%
same,BA converted,"TA_v2; Reaction_1, 16 h, 10 mM BA, 250 mM AD 6, 2 mg/mL TA_v2",~55%
same,product formation from ketosubstrate with HMW amino donors,TA_3HMU,qualitatively detected
"CC(C)N [IPA, isopropyl amine, reference compound]",TA_3HMU stability in presence of amine donor,"TA_3HMU; 250 mM amine donor (25-fold excess), 10 mM BA, 3.125 mg/mL enzyme, pH 9.5, 30° C.",fast inactivated
"CC(N)c1ccccc1 (stereo not drawn) [α-MBA, 1-phenylethylamine, reference compound]",TA activity towards amino donor (MycVan),MycVan,0
same,TA activity towards amino donor (AspOry),AspOry,0
(highly flexible) poly(ethylene glycol) bis (3-aminopropyl) [AD 7],"TA_3HMU activity / acceptance of amino donor, in words",3HMU,high activity
same,TA activity towards amino donor (AspFum),AspFum,0
same,TA activity towards amino donor (MycVan),MycVan,0
same,TA activity towards amino donor (AspOry),AspOry,0
same,TA activity towards amino donor (Vfl),Vfl,0
"O,O′-bis(2-aminopropyl) polypropylene glycol-block-polyethylene glycol-block-polypropylene glycol [AD 6]","TA_3HMU activity / acceptance of amino donor, in words",3HMU,broadly comparable to those achieved with the positive control
same,"TA_3HMU activity / acceptance of amino donor, in words",3HMU; listed as PEG-C,best acceptance
same,BA conversion,TA_3HMU; 10 mM BA,51%
Poly(propylene glycol) bis(2-aminopropyl ether) [AD 3],"TA_3HMU activity / acceptance of amino donor, in words",3HMU,broadly comparable to those achieved with the positive control
same,"TA_3HMU activity / acceptance of amino donor, in words",3HMU; listed as PEG-A,best acceptance
same,BA conversion,TA_3HMU; 10 mM BA,45%
